US6914045B2, “Glycopeptide antibiotics” (Wyeth Holdings Corporation, priority 2001, dated 2005)
In brackets after ≈: the same amount, converted by molar mass.

How the values were obtained:
Test in all cases: in vitro antibacterial evaluation, MIC by broth dilution
Format in all cases: cell-based
Conditions in all cases: broth dilution, 18 hours at 35° C.
[1] = test system: Streptococcus sp.
Procedure: (§1) Methods for in vitro Antibacterial Evaluation (Table 1)
(§2) The minimum inhibitory concentration (MIC), the lowest concentration of the antibiotic which inhibits growth of the test organism, is determined by the broth dilution method using Muller-Hinton II […] (Baltimore Biological Laboratories) following the recommendations of the National Committee for Clinical Laboratory Standards [Methods for dilution antimicrobial susceptibility tests for bacteria that grow aerobically, approved standard M7-A2, National Committee for Clinical Laboratory Standards, Villanova, Pa.].
(§3) An inoculum level of 5×10^5 CFU/mL, and a range of antibiotic concentrations (64-0.06 μg/mL) is used. […] The test organisms include a spectrum of Gram-positive bacteria comprised of Staphylococcus sp., Streptococcus sp. and Enterococcus sp. These organisms include recent clinical isolates that are resistant to methicillin, penicillin and/or vancomycin.

[2] = test system: Enterococcus sp.
Procedure: as §1, §2, §3

[3] = test system: Staphylococcus sp.
Procedure: as §1, §2, §3

[4] = test system: Escherichia coli
Method in brief: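 Broth dilution in Muller-Hinton II medium per NCCLS standard M7-A2, with an inoculum of 5×10^5 CFU/mL and antibiotic tested over 64-0.06 μg/mL. MIC was taken as the lowest concentration inhibiting visible growth.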

- MIC Streptococcus pneumoniae (ATCC 6301) ([1]; strain ATCC 6301): >128 µg/mL
- MIC Streptococcus pneumoniae (GC 1894) ([1]; strain GC 1894): 128 µg/mL (≈ 130 µM)
- MIC Streptococcus pyogenes (GC 4563) ([1]; strain GC 4563): >128 µg/mL
- MIC Streptococcus agalactiae (GC 4564) ([1]; strain GC 4564): >128 µg/mL
- MIC Streptococcus pneumoniae (GC 4565) ([1]; strain GC 4565): >128 µg/mL
- MIC Enterococcus avium (GC 4558) ([2]; Enterococcus avium (GC 4558)): 128 µg/mL (≈ 130 µM)
- MIC Enterococcus faecalis (ATCC 29212) ([2]; Enterococcus faecalis (ATCC 29212)): >128 µg/mL
- MIC Enterococcus faecalis (GC 4552) ([2]; Enterococcus faecalis (GC 4552)): >128 µg/mL
- MIC Enterococcus faecalis (GC 4553) ([2]; Enterococcus faecalis (GC 4553)): >128 µg/mL
- MIC Enterococcus faecalis (GC 4554) ([2]; Enterococcus faecalis (GC 4554)): >128 µg/mL
- MIC Enterococcus faecalis (GC 6189) ([2]; Enterococcus faecalis (GC 6189)): >128 µg/mL
- MIC Enterococcus faecium (GC 2243) ([2]; Enterococcus faecium (GC 2243)): >128 µg/mL
- MIC Enterococcus faecium (GC 4556) ([2]; Enterococcus faecium (GC 4556)): >128 µg/mL
- MIC Enterococcus faecium (GC 4557) ([2]; Enterococcus faecium (GC 4557)): 128 µg/mL (≈ 130 µM)
- MIC Enterococcus faecalis (ATCC 29212) ([2]; strain ATCC 29212): >128 µg/mL
- MIC Enterococcus faecalis (GC 2242) ([2]; strain GC 2242): >128 µg/mL
- MIC Enterococcus faecium (GC 2243) ([2]; strain GC 2243): >128 µg/mL
- MIC Enterococcus faecalis (GC 2691) ([2]; strain GC 2691): >128 µg/mL
- MIC Enterococcus faecalis (GC 3059) ([2]; strain GC 3059): >128 µg/mL
- MIC Enterococcus faecalis (GC 4552) ([2]; strain GC 4552): >128 µg/mL
- MIC Enterococcus faecalis (GC 4553) ([2]; strain GC 4553): >128 µg/mL
- MIC Enterococcus faecalis (GC 4554) ([2]; strain GC 4554): >128 µg/mL
- MIC Enterococcus faecium (GC 4556) ([2]; strain GC 4556): >128 µg/mL
- MIC Enterococcus faecium (GC 4557) ([2]; strain GC 4557): 128 µg/mL (≈ 130 µM)
- MIC Enterococcus avium (GC 4558) ([2]; strain GC 4558): 128 µg/mL (≈ 130 µM)
- MIC Enterococcus faecalis (GC 6189) ([2]; strain GC 6189): >128 µg/mL
- MIC Staphylococcus aureus (ATCC 29213) ([3]; strain ATCC 29213): >128 µg/mL
- MIC Staphylococcus aureus (GC 1131) ([3]; strain GC 1131): >128 µg/mL
- MIC Staphylococcus aureus (GC 3051) ([3]; strain GC 3051): >128 µg/mL
- MIC Staphylococcus aureus (GC 3053) ([3]; strain GC 3053): >128 µg/mL
- MIC Staphylococcus aureus (GC 4541) ([3]; strain GC 4541): >128 µg/mL
- MIC Staphylococcus aureus (GC 4542) ([3]; strain GC 4542): >128 µg/mL
- MIC Staphylococcus aureus-SMITH (GC 4543) ([3]; strain GC 4543): >128 µg/mL
- MIC Staphylococcus aureus (GC 4544) ([3]; strain GC 4544): >128 µg/mL
- MIC Staphylococcus aureus (GC 4545) ([3]; strain GC 4545): >128 µg/mL
- MIC Coagulase Negative Staphylococcus (GC 4547) ([3]; strain GC 4547): >128 µg/mL
- MIC Coagulase Negative Staphylococcus (GC 4548) ([3]; strain GC 4548): >128 µg/mL
- MIC Coagulase Negative Staphylococcus (GC 4549) ([3]; strain GC 4549): >128 µg/mL
- MIC Coagulase Negative Staphylococcus (GC 4551) ([3]; strain GC 4551): >128 µg/mL
- MIC Escherichia coli (ATCC 25922) ([4]; strain ATCC 25922): >128 µg/mL
- MIC Escherichia coli (GC 4559) ([4]; strain GC 4559): >128 µg/mL
- MIC Escherichia coli (GC 4560) ([4]; strain GC 4560): >128 µg/mL
Structure (SMILES): CC(C1CCCCC1)C1NC(=O)CNC(=O)C(CO)NC(=O)C(C(O)C2CNC(=N)N2C2OC(CO)C(O)C(O)C2O)NC(=O)C(C(O)C2CNC(=N)N2)NC(=O)C(C[C@H]2CC[C@@H](O)CC2)NC1=O (stereo partly drawn) [Example 54, Cyclo[3-(syn-4-hydroxycyclohexyl)alanyl-3-(2-ininoimidazolidin-4-yl)seryl-3-(3-hexopyranosyl-2-iminoimidazolidin-4-yl)serylserylglycyl-3-cyclohexyl-2-aminobutanoyl]]
- MIC Staphylococcus haemolyticus (GC 4546) ([3]; strain GC 4546): >128 µg/mL
